Assay [1] has as its system PDE I. The assay is described as follows: PDE inhibition, type I PDE (cGMP substrate, calmodulin/CaCl2 added). The note with it: PDE I from porcine hearts, cGMP 1 μM; read-out: Inhibition of PDE Isoenzymes (IC50) I. Format: biochemical. The protocol:
The assays for PDE activity were conducted according to Nicholson et al. method (Br. J. Pharmacol., 97, 889 (1989)).
Among PDE isozymes, type I, II, III and IV PDEs as used herein were separated from porcine hearts by using an anion exchange chromatography. Type V PDE was also separated from porcine aortae with an anion exchange chromatography and used herein.
Each PDE isozyme was admixed with ethylene glycol (EG) to adjust the final EG concentration to 30%, then stored at −20° C. and diluted when used. The enzymatic activity for PDE I and V was measured using cGMP as a substrate while that for POE II, III and IV was measured using cAMP.
[^3H]-cAMP (962 GBq/mmol; Amersham, 25 μl (100,000 cpm)) or [^3H]-cGMP (962 GBq/mmol; Amersham, 25 μl (100,000 cpm)) was added together with each PDE isozyme (25 μl) to an incubation buffer solution with the composition given below to adjust the total volume to 250 μl. Each test compound was dissolved in DMSO to adjust the final concentration to 1% (2.5 μl/tube).
Incubation buffer solution (pH7.5):
Tris-HCl (50 mM), magnesium chloride (6 mM), dithiothreitol
(2.5 mM), 5-nucleotidase (4 μg/ml), bovine serum albumin
(0.23 mg/ml), and cAMP (1 μM) [or cGMP (1 μM)]
A mixture of the aforementioned test compound solution and the buffer solution was incubated at 30° C. for 20 minutes. The reaction was quenched by admixing with 1 ml of anion exchange resin slurry (AG1-X8, 200-400 meshes, chloride form; Bio-Rad) to absorb unreacted substrates.
After the reaction stopped, the mixture was centrifuged at 200×g for 10 minutes, and the resulting supernatant was collected with vials in 250 μl aliquots. To each vial was added 5 ml of ACS-II (scintillator, Amersham). The radioactivity was measured with a liquid scintillator counter for [^3H]-adenosine or [^3H]-guanosine and set as the PDE activity. The measurements were conducted under conditions wherein the enzymatic activity was elevated by adding calmodulin (20 U/ml; Amersham) and calcium chloride (0.1 mM) for PDE-I and cGMP (1 μM) for PDE II, respectively.
The % inhibition was calculated for test compounds, and IC50 (the concentration of each test compound required for 50% inhibition) was obtained by Probit method. The aforementioned rolipram ((−)-isomer, optical purity: 91% e.e.) known as the PDE IV inhibitor in the prior art was used for the reference compound in this assay.

Assay [2] concerns actively sensitized guinea pigs. Briefly: Inhibition of antigen-induced immediate asthmatic response (airway resistance, Konzett-Rossler method). Format: in vivo, guinea pig. As to conditions: for inhibition in vivo at 3 mg/kg: Cavia porcellus, po, orally, 60 minutes prior to antigen-challenge, average of 3 animals, read-out: % Reduction of Increase in Airway Resistance; for % reduction of increase in airway resistance: oral administration at a dose of 1 mg/kg. As for the experimental part:
(1) Active Sensitization of Guinea Pigs
Male Hartley outbred guinea pigs were sensitized by administering intraperitoneally physiological saline (0.5 ml) containing ovalbumin (1 mg, antigen) and 5×10^9 inactivated Bordetella pertussis dead cells (adjuvant).
Eleven to thirteen days after the first sensitization, 0.05 ml of an ovalbumin solution (1 mg/ml) (ovalbumin is dissolved in physiological saline) was administered to the lateroabdominal region of each guinea pig intracutaneously. An establishment of sensitization was checked relying on cutaneous reaction. Only guinea pigs wherein significant reddening responses occurred 5 to 10 minutes later were employed in the next measurement test for airway resistance.
(2) Measurement for Airway Resistance in Actively Sensitized-Guinea Pigs
The guinea pigs (3 animals per group) actively sensitized in the above step (1) were employed to measure for their airway pressure according to Konzett-Rossler method (Arch. Exp. Path. Pharmakol., 195, 71 (1940)).
Thirteen days after the final sensitization, guinea pigs fasted overnight, and were on the next day anesthetized with a pentobarbital solution (60 mg/1.2 ml/kg, dissolved in physiological saline, intraperitoneal administration). After the guinea pigs were fixed in a supine position, their trachea was incised followed by insertion with one port of a 4-port cannula. Among the remaining 3 ports, 2 ports were connected to an artificial respirator (Model 683, Harvard). The animals were ventilated with 10 ml/kg of air per ventilation at a rate of 60 beats/min via the artificial respirator from the cannula. One port remainder was connected to a respiratory amplifier (AR-601G, Nihon Kohden, Japan) via an airflow resistance tube (TV-241T, Nihon Kohden, Japan) and a differential pressure transducer (TP-602T, Nihon Kohden, Japan) connected with a control box (RY-111S, Nihon Kohden, Japan). From a catheter inserted into a left carotid artery, blood pressures were monitored with a blood pressure measurement unit (AP641G, NEC Corp., Japan) via a blood pressure transducer (TP-300T, Nihon Kohden, Japan), and heart rates were recorded on a thermal recorder (WT-685G, Nihon Kohden, Japan), relying on blood pressure pulse waves after being led to a cardiograph unit (AT601G, Nihon Kohden, Japan).
After airway pressure became stable, an ovalbumin solution (1 mg/ml, dissolved in physiological saline) was administered at a dose of 1 ml/kg via a tube with which the right jugular vein of guinea pigs was cannulated. Each area under airway pressure-time curve (AUC) was obtained by measuring amplitudes of the airway pressure prior to the antigen-challenge, 1, 2, 3, 4, 5, 10, 15 and 20 minutes post-challenge, and each percent increase (%) in airway resistance was further calculated according to the following equation: [formula]
[…] Control groups received only 0.5% CMC—Na solution in an equivalent amount. The pentobarbital-anesthetization and tracheal incision were conducted 30 minutes prior to the antigen-challenge.
Each percent reduction of increase in airway resistance (each test compound-administered group versus control group) was calculated according to the equation given below. The results are shown in Table 2 wherein each value is an average of 3 animals. Rolipram as described in Assay Example 1 was used for the reference compound in this assay. [formula]
For a comparison with compounds as disclosed in JP, A, 63-159382 (1988), the percent reduction of increase in airway resistance was obtained for the compounds of the present invention (oral administration at a dose of 1 mg/kg), the compounds in Table 1 of JP, A, 63-159382 (1988) (oral administration at a dose of 1 mg/kg), and rolipram (reference compound; oral administration at a dose of 3 mg/kg), respectively, in the same assay manner as in the aforementioned Assay Example 2.

In general, IC50 refers to the concentration that inhibits the measured activity by half.

Turning to `O=c1c(CCc2cccnc2)cc2cccnc2n1-c1cccc([N+](=O)[O-])c1` [Example No. 5, 1-(3-Nitrophenyl)-3-[2-(pyridin-3-yl)ethyl]-1,8-naphthyridin-2(1H)-one], the IC50 in assay [1] was 22 µM. Also, in assay [2], the inhibition in vivo at 3 mg/kg stood at 90% and the “% reduction of increase in airway resistance” value was determined as 86%.
Consider `O=c1c(CCCc2ccncc2)cc2cccnc2n1-c1cccnc1` [Example No. 23, 1-(Pyridin-3-yl)-3-[3-(pyridin-4-yl)propyl]-1,8-naphthyridin-2(1H)-one], for which the half-inhibitory concentration (IC50) in assay [1] was over 100 µM. For the same compound, in assay [2], the inhibition in vivo at 3 mg/kg was 90%.
The corresponding values for `O=c1c(CCCCCc2cccnc2)cc2cccnc2n1-c1cccc([N+](=O)[O-])c1` [Example No. 16, 1-(3-Nitrophenyl)-3-[5-(pyridin-3-yl)pentyl]-1,8-naphthyridin-2(1H)-one] are 98 µM and 96%.
As to `COc1ccc(C2CNC(=O)C2)cc1OC1CCCC1` (single isomer, unassigned) [Rolipram, rolipram, reference compound], the half-inhibitory concentration (IC50) in assay [1] was over 100 µM. The inhibition in vivo at 3 mg/kg in assay [2] was determined as 65%.
The corresponding values for `O=c1c(Cc2cccnc2)cc2cccnc2n1-c1cccc([N+](=O)[O-])c1` [Example No. 2, 1-(3-Nitrophenyl)-3-(pyridin-3-ylmethyl)-1,8-naphthyridin-2(1H)-one] are over 100 µM and 64%.
`O=c1c(CCCc2cccnc2)cc2cccnc2n1-c1cccc([N+](=O)[O-])c1` [Example No. 7, 1-(3-Nitrophenyl)-3-[3-(pyridin-3-yl)propyl]-1,8-naphthyridin-2(1H)-one]: the IC50 in assay [1] was over 100 µM. For the same compound, the inhibition in vivo at 3 mg/kg in assay [2] was determined as 95%.
For the compound `O=c1c(CCc2ccncc2)cc2cccnc2n1-c1cccc([N+](=O)[O-])c1` [Example No. 6, 1-(3-Nitrophenyl)-3-[2-(pyridin-4-yl)ethyl]-1,8-naphthyridin-2(1H)-one], in assay [1], the IC50 was over 100 µM. The inhibition in vivo at 3 mg/kg in assay [2] worked out at 87%.
For `CSc1cccc(-n2c(=O)c(CCCc3ccncc3)cc3cccnc32)c1` [Example No. 10, 1-(3-Methylthiophenyl)-3-[3-(pyridin-4-yl)propyl]-1,8-naphthyridin-2(1H)-one] the same measures were over 100 µM and 82%.
Consider `O=c1c(CCCc2ccncc2)cc2cccnc2n1-c1cccc([N+](=O)[O-])c1` [Example No. 8, 1-(3-Nitrophenyl)-3-[3-(pyridin-4-yl)propyl]-1,8-naphthyridin-2(1H)-one], for which the IC50 in assay [1] was over 100 µM. Further, in assay [2], the inhibition in vivo at 3 mg/kg came to 88% and the “% reduction of increase in airway resistance” value stood at 88%.
For `O=c1c(CCCCc2cccnc2)cc2cccnc2n1-c1cccc([N+](=O)[O-])c1` [Example No. 14, 1-(3-Nitrophenyl)-3-[4-(pyridin-3-yl)butyl]-1,8-naphthyridin-2(1H)-one], the IC50 in assay [1] came to 83 µM. In assay [2], the inhibition in vivo at 3 mg/kg is 92%.

The values are drawn from patent US6642250B2, “1,8-naphthyridin-2(1H)-one derivatives” (Grelan Pharmaceutical Co., Ltd., priority 1999, dated 2003).
